Earlier results on two molecules are cited in US7632837B2, “Bicyclic heterocycles as cannabinoid-1 receptor modulators” (Bristol-Myers Squibb Company, priority 2005, dated 2009).

For data set [1] the following is noted: chronic administration for two weeks.
For data set [2] the following is noted: 16 week trial period; published Phase IIb data.

On to `Cc1c(C(=O)NN2CCCCC2)nn(-c2ccc(Cl)cc2Cl)c1-c1ccc(I)cc1` [AM-251], for which the body weight result in data set [1] is on record as “substantial body weight reduction”.

With `Cc1c(C(=O)NN2CCCCC2)nn(-c2ccc(Cl)cc2Cl)c1-c1ccc(Cl)cc1` [SR-141716], the “body weight in human subjects” value in data set [2] is given as “dose-dependently reduced body weight”.
